# Source: the RepoRT retention time repository
# Assay: Agilent ZORBAX 300 SB-C18, 150 × 1 mm, 3.5 µm; A: water + 0.01% heptafluorobutyric acid; B: acetonitrile + 0.01% heptafluorobutyric acid; gradient (min/%B) 0/0 100/90
# Conditions: stereoisomer not certain
row,LC retention time [min],SMILES
1,10.2,CCN(CC)c1nc(-c2ccncc2)nc2ccccc12
2,6.89,Cc1cc(=O)[nH]c(N=C(N)N2CCOCC2)n1
3,17.5,CC(Nc1ccc2ccccc2c1)C(=O)NN=Cc1c2ccccc2cc2ccccc12 (configuration not stated)
4,6.84,c1nc2c(ccc3[nH]cnc32)[nH]1
5,15.2,COc1ccc(-c2cc(=O)c3cc(C)cc(C)c3o2)cc1OC
6,9.29,c1ccc(-c2cccc(-c3ccccn3)n2)nc1
7,8.48,CC(=O)c1[nH]c2c(c1C)C(=O)CCC2
8,5.85,Nc1cccc(N)c1
9,9.12,COc1ccccc1-n1c(=O)n2n(c1=O)CCCC2
10,8.94,Nc1cc(=O)[nH]c(=S)n1C1CCCC1
11,5.85,CCCNC
12,6.51,CNCCN
13,13.1,Cc1ccc(CNC(=S)Nc2ccccc2)n1C
14,6.22,NC1CCNCC1
15,5.38,Cc1c(N)cccc1C(N)=O
16,2.18,O=C(O)c1cc(=O)n(-c2ccc(S(=O)(=O)O)cc2)[nH]1
17,12,Cc1[nH]c2ccccc2c1CCNC(=O)C1CCCN1C(=O)Nc1ccccc1 (configuration not stated)
18,9.24,Cc1cc2c(s1)Nc1ccccc1N=C2N
19,13.8,CCCCCCCCCC(N)=O
20,7.95,CCCOC(=O)C1CCCCN1 (configuration not stated)
21,9.55,Cn1c(C2CCCCC2)nc2ccccc21

row,LC retention time [min],SMILES
1,8.37,CCN(CC)CCNc1c(N)c(=O)oc2ccccc12
2,9.59,Cc1ccc(-c2nn[nH]n2)cc1
3,8.89,Nc1ccc2[nH]c3c(c2c1)CCCC3
4,9.6,COc1cc(C2ON=C(CN3CCOCC3)C2C)c(OC)c2c1OCO2 (configuration not stated)
5,12.5,Cc1ccccc1Nc1nc(Nc2ccccc2C)c2ccccc2n1
6,9.61,S=c1[nH]ccc2ccccc12
7,1.56,Cc1c(C(=O)O)[nH]c(=O)[nH]c1=O
8,15.1,Cc1ccc(C(=O)Nc2ccc3[nH]c4c(c3c2)CCCC4)cc1
9,6.44,NCc1ccncc1
10,13.7,c1ccc(SCSc2ccccn2)nc1
11,7.36,Cc1nc2ccccc2[nH]1
12,9.69,Cc1cc2n[nH]nc2cc1C
13,1.57,Cn1c(=O)cc(C(=O)O)[nH]c1=O
14,7.29,CCCCNC
15,7.25,CN1CCn2c1nc(N1CCOCC1)nc2=O
16,16,CCOc1ccc(CCNC(=O)N(c2ccccc2)c2ccccc2)cc1OCC
17,13.8,c1ccc(CCn2c(-c3ccccc3)csc2=Nc2ccccc2)cc1
18,6.59,Nc1ccc2ncc(=O)[nH]c2c1
19,14,CCOC(=O)c1ccc(Nc2c(N)c(=O)oc3ccccc23)cc1
20,8.74,CC(=NN=C(C)c1cccc(N)c1)c1cccc(N)c1
21,10.5,CCC(=O)Nc1ccc(Oc2ccc(NC(=O)CC)c(NC(=O)CC)c2)cc1

# Further lines, the compound ahead of its results:
row,SMILES,LC retention time [min]
1,Oc1ccc2c(c1)C13CCCCC1(O)C(C2O)N(CC1CCC1)CC3 (configuration not stated),8.68
2,Cc1c[n+](C)c(C)cc1-c1ccccc1,9.13
3,CNCCCn1c(=O)[nH]c2ccccc21,7.64
4,Cc1cccc(CN)c1,7.91
5,Cn1c(=O)c2c(ncn2C)n(C)c1=O,7.49
6,O=C1CCN(c2ccccc2)N1,9.05
7,Cc1cc(C)c2c(CC(=O)NN(C)C)coc2c1,10.9
8,Cc1c(N)cc(N)cc1NC(=O)c1ccccc1,8.28
9,O=C(CCc1ccccc1)NNC(=S)NCc1ccccc1,12.4
10,CC1CN=C(NC2CCCCC2)S1 (configuration not stated),7.02
11,O=C1CCNc2cc3ccccc3cc21,12.1
12,CC(=O)Nc1cc(NC(C)=O)nc(NC(C)=O)n1,7.21
13,CC1(C)CC(=O)c2c(-c3ccccc3)nc3ccc4ccccc4c3c2C1,17.1
14,Cc1nc2ccc(N)cc2nc1C,7.33
15,Cc1cc2cc(N)ccc2n1C,8.33
16,CC(C)NC(=O)C(=O)NCCCO,6.9
17,c1ccc(-n2cnnn2)cc1,9.44
18,Cc1cccc(C=NNC(=O)C[n+]2ccccc2)c1,9.09
19,Nc1ccc(OCc2ccccc2)cc1,9.84
20,Cn1c(C(=O)O)cc2ccccc21,11.4
21,Cc1cccc(NC(N)=S)n1,8.81
22,Nc1ncc2c(n1)CCC2,6.96
23,CCCCCCNC(=O)c1ccc(OC(C)=O)cc1,13.8

row,SMILES,LC retention time [min]
1,Cc1ccc(CSc2ncccn2)c(CSc2ncccn2)c1C,16
2,CC1CCCCN1C(=O)c1cncc(C(=O)N2CCCCC2C)c1 (configuration not stated),11.3
3,CCCCCNC=O,8.68
4,S=C(Nc1cccnc1)N1CCc2ccccc21,9.72
5,CCNC(=S)N1CCCC(C(N)=O)C1 (configuration not stated),7.41
6,O=C1C(=Cc2ccco2)C(=O)c2ccccc21,14
7,O=C(NCCCn1c2ccccc2c2ccccc21)Nc1ccccc1,15.8
8,COC(=O)CCC(=O)Nc1ccc(C)cc1C,11.7
9,CCCCOC(=O)c1ccc(NC(=O)CCCC)cc1,16.3
10,c1cc(-c2nn[nH]n2)cc(-n2cccn2)c1,9.34
11,Nc1ccccc1NC(=O)Nc1ccccc1N,8.05
12,CC1=NN(c2ccc(C)cc2)C(=O)C1C=O (configuration not stated),8.94
13,Cc1ccc2nc(-c3nn[nH]n3)ccc2c1,10.5
14,c1ccc(Cn2c3ccccc3c3ccccc32)cc1,18.8
15,CC1=NC(=Cc2ccccc2)C(=O)O1,9.16
16,O=C(O)c1c2ccccc2nc2ccccc12,5.86
17,CCOC(=O)c1ccc(N(CC)CC)cc1,12.5
18,CC(C)(C)C1=CC(=O)CN(C(C)(C)C)C1,8.19
19,N=c1c2c3c(sc2ncn1N)CCC3,8.21
20,Cn1cccc1CC(=O)NN=CC=Cc1ccccc1,12.7
21,CCOC(=O)CNc1ccccc1,12.4
22,CN1C2CC(OC(=O)C(CO)c3ccccc3)CC1C1OC12 (configuration not stated),8.47
23,Nc1nc(=Nc2ccccc2)n2c(n1)sc1ccccc12,10.4

row,SMILES,LC retention time [min]
1,CCN(CC)CCC(O)(c1ccccc1)C1CCCCC1 (configuration not stated),11.3
2,NC(=O)CCCCCCCCCC(Cc1ccccc1)C(=O)O (configuration not stated),13.3
3,Cc1cccc(C(=O)N2CCc3c([nH]c4ccccc34)C2c2ccccc2)c1 (configuration not stated),17.8
4,c1ccc(-c2cnc(-c3cccc4ccccc34)o2)cc1,19.4
5,CCCCN1CCCC1,7.55
6,OC1CCNCC1,2.8
7,CN(C)c1ccc(C(O)c2ccc(N(C)C)cc2)cc1,9.42
8,NCC(=O)c1ccccc1,7.35
9,Cc1ccc(N2NC(C)(CC(C)C)NC2=S)cc1 (configuration not stated),15.1
10,CC(C)Cc1nc2ccccc2n1CC(C)C,10.9
11,CSC1=NCCN1,5.98
12,NC(=O)c1ccccc1NC(=O)Cn1cnc2ccccc2c1=O,9.05
13,CN1CCCN=C1C=Cc1cccs1,8.55
14,CCN(CC)c1ccc(CNCCCN(C)C)cc1,7.76
15,CCN(CC)C(=O)c1ccc(O)c(OC)c1,9.39
16,O=C(Nc1ccc(Nc2ccccc2)cc1)C(c1ccccc1)c1ccccc1,17.1
17,CCN(CC)c1ccc(C2Nc3ccccc3C(CC)(CC)O2)cc1 (configuration not stated),13.8
18,c1ccc2[nH]c(CCn3c4c(c5ccccc53)CCCC4)nc2c1,12
19,NC1CCCCCC1,7.85
20,Cc1cccc2c1N(C)C(=O)C2=O,10.1
21,O=C1CC(N2CCN(Cc3ccccc3)CC2)C(=O)N1Cc1ccccc1 (configuration not stated),9.91
22,COc1ccc(N)c(C)c1C,8.59
23,NCCCNCCN,7.42

row,SMILES,LC retention time [min]
1,c1ccc(N(c2ccccc2)c2ccccc2)cc1,20.2
2,Cc1cccc(Nc2cc(C)nc3ccccc23)c1,10.4
3,O=C1c2ccccc2-c2nc3ccccc3nc21,13
4,Cc1ccccc1NCC(=O)Nc1c(C)cccc1C,13.8
5,Cc1cccc2c(=O)cc(-c3ccccc3)oc12,15.4
6,CCc1c(C)nc2c(O)cccn2c1=O,8.76
7,CN(C)CCCN1CCC(O)C2CCCCC21 (configuration not stated),7.19
8,Cc1[nH]c2ccccc2c1C=NN=Cc1c(C)[nH]c2ccccc12,12
9,CN1CCCNCC1,6.55
10,CCOC(=O)C1(c2ccccc2)CCN(C)CC1,9.81
11,CC(=O)CNC(C)(C)C,6.35
12,CCCNC(C)C(=O)Nc1c(C)csc1C(=O)OC (configuration not stated),9.27
13,CC1CCCN1 (configuration not stated),5.96
14,CCN(CC)CCNc1cccc2ccccc12,10.1
15,COc1ccc2c3c1OC1C(=O)CCC4C(C2)N(C)CCC314 (configuration not stated),8.61
16,Cn1c(O)c(Cc2ccc(OCc3ccccc3)cc2)c(=O)n(C)c1=O,15
17,CNCCc1ccncc1,6.72
18,CN(C)c1nc(N(C)C)nc(N2CCCCC2)n1,11.2
19,Cc1ccc(N2C3=C(C(=O)CC(C)(C)C3)C(c3ccccc3)C3=C2c2ccccc2C3=O)cc1 (configuration not stated),18.4
20,O=c1cc(Nc2ccccc2)c2ccccc2o1,12.2
21,S=C(Nc1ccccc1)N1CCCCC1,12.3
